Laboratory results: patent publication US20030181389A1, “Therapeutic and prophylactic use of reduced forms of pharmaceutical compounds” (priority 2000, published 2003)
Marks after values point to notes of the source that are not given here. Each block holds one compound with its values, some of them ahead of it.

Assays:
[1] = oxygen superoxide scavenging (recent research); assay type: biochemical; conditions: stabilised leucomethylene blue
[2] = xanthine/xanthine oxidase superoxide assay: oxidation of leuco compounds, with SOD added after sixth minute; assay type: biochemical; conditions: for effect of addition of SOD on rate of oxidation of the leuco compound: 5 units of SOD added after the sixth minute; for oxidation of leucomethylene blue (665 nm), rate of change of optical density / oxidation of leucothionine (605 nm), rate of change of optical density: 12.5 μM
Excerpt: The principle upon which the following assay is based is that the enzyme xanthine oxidase acts on xanthine to oxidise xanthine and thereby to reduce ferricytochrome C by a mechanism which, at least partly, involves superoxide. Thus, the reduction (and increase) in optical density of ferricytochrome C is dependent on superoxide as a reductant. The inclusion of superoxide dismutase (“SOD”) in the assay serves to dismutate some of the available superoxide, thus causing a decrease in the rate of reduction of ferricytochrome C. […]
Superoxide is a single electron reductant or oxidant.
To explore the effect of leucothionine and leucomethylene blue, these compounds were mixed at 12.5 μM concentration in 50 mM potassium phosphate buffer (pH 7.8) with xanthine (50 μM) and EDTA (100 μM) buttermilk xanthine oxidase (around […]) was then added to give a rate of increase in absorbance of about 0.1 optical density units (for methylene blue at 665 nm and for thionine at 605 nm) per minute at 30° C. above controls using leucothionine or leucomethylene blue, potassium phosphate buffer, xanthine and EDTA alone.

[3] = adrenochrome system: auto-oxidation of dl-epinephrine; assay type: biochemical; conditions: dl-epinephrine 500 μM, pH 10.2; for oxidation peak of Leucomethylene blue (665 nm) / effect on appearance of adrenochrome at 310 nm / oxidation peak of Leucothionine (605 nm): 50 μM; for appearance of adrenochrome (310 nm) in presence of leuco compound: leuco compound 50 μM; for appearance of adrenochrome (310 nm) in presence of leuco compound / effect on appearance of adrenochrome at 310 nm: 30° C.
Excerpt: In another experiment, the results of the experiment in Example 1 above were confirmed by using the adrenochrome system. In this system, dl-epinephrine is auto-oxidised under alkaline conditions by a superoxide dependent pathway. The reaction rate of this reaction can be decreased or interrupted by the addition of SOD, which scavenges superoxide. […] In this system, the rate of auto-oxidation of dl-epinephrine is decreased by the presence of either leuco compound, while the leuco compounds themselves are oxidised by superoxide in a rate dependent manner.
In this experiment, dl-epinephrine (500 μM) was allowed to auto-oxidise in 50 mM sodium carbonate buffer (pH 10.2) containing EDTA (100 μM) at 30° C. under these conditions, epinephrine is oxidised to adrenochrome (310 or 485 nm increase in absorption).

[4] = direct oxidation of leuco compounds by potassium superoxide; assay type: biochemical; conditions: for final optical density leucomethylene blue (665 nm) / direct oxidation of the leuco compound by potassium superoxide / final optical density leucothionine (605 nm): approximately 10 μM, pH 7.8; for final optical density leucomethylene blue (665 nm) / final optical density leucothionine (605 nm): potassium superoxide; for colour change of the cell: after potassium superoxide addition; for direct oxidation of the leuco compound by potassium superoxide: EDTA 100 μM
Protocol: In a further experiment, potassium superoxide was added to a reaction cell containing buffers, EDTA and concentrations of leucothionine and leucomethylene blue. Direct oxidation of the leuco compounds was observed by superoxide.
Potassium superoxide was added directly to nitrogen gassed potassium phosphate buffer (pH 7.8) containing EDTA (100 μM) and approximately 10 μM concentration of leucothionine and leucomethylene blue.
Due to the effervescence of the cell, a known property of potassium superoxide in water, no measurements were possible in the first 4 minutes of the reaction.

[5] = system: haemoglobin; conditions: chronic toxicity studies, laboratory animals; cited from earlier work
[6] = minute 1, before SOD, pH 7.8, 30° C.
[7] = minute 2, before SOD, pH 7.8, 30° C.
[8] = minute 3, before SOD, pH 7.8, 30° C.
[9] = minute 4, before SOD, pH 7.8, 30° C.
[10] = minute 5, before SOD, pH 7.8, 30° C.
[11] = minute 6, before SOD, pH 7.8, 30° C.
[12] = minute 7, after addition of 5 units of SOD
[13] = minute 8, after addition of 5 units of SOD
[14] = minute 9, after addition of 5 units of SOD
[15] = minute 10, after addition of 5 units of SOD
[16] = minute 11, after addition of 5 units of SOD
[17] = minute 12, after addition of 5 units of SOD

effect of addition of SOD on rate of oxidation of the leuco compound [2]: decreased the rate of oxidation
oxidation of leucomethylene blue (665 nm), rate of change of optical density [2, 6]: 0.096
oxidation of leucomethylene blue (665 nm), rate of change of optical density [2, 7]: 0.102
oxidation of leucomethylene blue (665 nm), rate of change of optical density [2, 8]: 0.110
oxidation of leucomethylene blue (665 nm), rate of change of optical density [2, 9]: 0.101
oxidation of leucomethylene blue (665 nm), rate of change of optical density [2, 10]: 0.099
oxidation of leucomethylene blue (665 nm), rate of change of optical density [2, 11]: 0.103
oxidation of leucomethylene blue (665 nm), rate of change of optical density [2, 12]: 0.030 *
oxidation of leucomethylene blue (665 nm), rate of change of optical density [2, 13]: 0.017
oxidation of leucomethylene blue (665 nm), rate of change of optical density [2, 14]: 0.014
oxidation of leucomethylene blue (665 nm), rate of change of optical density [2, 15]: 0.013
oxidation of leucomethylene blue (665 nm), rate of change of optical density [2, 16]: 0.010
oxidation of leucomethylene blue (665 nm), rate of change of optical density [2, 17]: 0.010
SMILES: CN(C)c1ccc2c(c1)Sc1cc(N(C)C)ccc1N2 [leucomethylene blue]
oxygen superoxide scavenging [1]: powerful oxygen superoxide scavenger
oxidation peak of Leucomethylene blue (665 nm) ([3]; 0 minutes): 0.006
appearance of adrenochrome (310 nm) in presence of leuco compound ([3]; 0 minutes): 0.005
effect on appearance of adrenochrome at 310 nm [3]: effective in reducing the appearance of adrenochrome
oxidation peak of Leucomethylene blue (665 nm) ([3]; 1 minute): 0.093
appearance of adrenochrome (310 nm) in presence of leuco compound ([3]; 1 minute): 0.031
oxidation peak of Leucomethylene blue (665 nm) ([3]; 2 minutes): 0.110
appearance of adrenochrome (310 nm) in presence of leuco compound ([3]; 2 minutes): 0.021
oxidation peak of Leucomethylene blue (665 nm) ([3]; 3 minutes): 0.120
appearance of adrenochrome (310 nm) in presence of leuco compound ([3]; 3 minutes): 0.030
oxidation peak of Leucomethylene blue (665 nm) ([3]; 4 minutes): 0.116
appearance of adrenochrome (310 nm) in presence of leuco compound ([3]; 4 minutes): 0.035
oxidation peak of Leucomethylene blue (665 nm) ([3]; 5 minutes): 0.121
appearance of adrenochrome (310 nm) in presence of leuco compound ([3]; 5 minutes): 0.031
oxidation peak of Leucomethylene blue (665 nm) ([3]; 6 minutes): 0.119
appearance of adrenochrome (310 nm) in presence of leuco compound ([3]; 6 minutes): 0.038
final optical density leucomethylene blue (665 nm) ([4]; 0 minutes): 0.015
final optical density leucomethylene blue (665 nm) ([4]; 5 minutes): 0.38
final optical density leucomethylene blue (665 nm) ([4]; 6 minutes): 0.44
final optical density leucomethylene blue (665 nm) ([4]; 7 minutes): 0.46
final optical density leucomethylene blue (665 nm) ([4]; 8 minutes): 0.44
colour change of the cell [4]: colourless to blue
direct oxidation of the leuco compound by potassium superoxide [4]: rapidly oxidised to their coloured oxidised states

effect of addition of SOD on rate of oxidation of the leuco compound [2]: decreased the rate of oxidation
oxidation of leucothionine (605 nm), rate of change of optical density [2, 6]: 0.086
oxidation of leucothionine (605 nm), rate of change of optical density [2, 7]: 0.093
oxidation of leucothionine (605 nm), rate of change of optical density [2, 8]: 0.093
oxidation of leucothionine (605 nm), rate of change of optical density [2, 9]: 0.095
oxidation of leucothionine (605 nm), rate of change of optical density [2, 10]: 0.101
oxidation of leucothionine (605 nm), rate of change of optical density [2, 11]: 0.096
oxidation of leucothionine (605 nm), rate of change of optical density [2, 12]: 0.041 *
oxidation of leucothionine (605 nm), rate of change of optical density [2, 13]: 0.009
oxidation of leucothionine (605 nm), rate of change of optical density [2, 14]: 0.009
oxidation of leucothionine (605 nm), rate of change of optical density [2, 15]: 0.011
oxidation of leucothionine (605 nm), rate of change of optical density [2, 16]: 0.008
oxidation of leucothionine (605 nm), rate of change of optical density [2, 17]: 0.009
SMILES: Nc1ccc2c(c1)Sc1cc(N)ccc1N2 [leucothionine]
oxidation peak of Leucothionine (605 nm) ([3]; 0 minutes): 0.007
appearance of adrenochrome (310 nm) in presence of leuco compound ([3]; 0 minutes): 0.005
effect on appearance of adrenochrome at 310 nm [3]: effective in reducing the appearance of adrenochrome
oxidation peak of Leucothionine (605 nm) ([3]; 1 minute): 0.083
appearance of adrenochrome (310 nm) in presence of leuco compound ([3]; 1 minute): 0.034
oxidation peak of Leucothionine (605 nm) ([3]; 2 minutes): 0.121
appearance of adrenochrome (310 nm) in presence of leuco compound ([3]; 2 minutes): 0.027
oxidation peak of Leucothionine (605 nm) ([3]; 3 minutes): 0.110
appearance of adrenochrome (310 nm) in presence of leuco compound ([3]; 3 minutes): 0.033
oxidation peak of Leucothionine (605 nm) ([3]; 4 minutes): 0.114
appearance of adrenochrome (310 nm) in presence of leuco compound ([3]; 4 minutes): 0.034
oxidation peak of Leucothionine (605 nm) ([3]; 5 minutes): 0.116
appearance of adrenochrome (310 nm) in presence of leuco compound ([3]; 5 minutes): 0.028
oxidation peak of Leucothionine (605 nm) ([3]; 6 minutes): 0.120
appearance of adrenochrome (310 nm) in presence of leuco compound ([3]; 6 minutes): 0.032
final optical density leucothionine (605 nm) ([4]; 0 minutes): 0.035
final optical density leucothionine (605 nm) ([4]; 5 minutes): 0.42
final optical density leucothionine (605 nm) ([4]; 6 minutes): 0.45
final optical density leucothionine (605 nm) ([4]; 7 minutes): 0.45
final optical density leucothionine (605 nm) ([4]; 8 minutes): 0.46
colour change of the cell [4]: purple
direct oxidation of the leuco compound by potassium superoxide [4]: rapidly oxidised to their coloured oxidised states

SMILES: CN(C)c1ccc2nc3ccc(=[N+](C)C)cc-3sc2c1 [methylene blue]
haematological toxicity on repeated administration of high doses [5]: causes oxidation of haemoglobin to methaemoglobin and tissue accumulation of Heinz bodies
